In this assay the test system is gastrointestinal motility. Put plainly: Effects on gastrointestinal motility in conscious dog (force transducers implanted on stomach and colon, motor index). The class given is in vivo. The following applies: Canis lupus familiaris, iv, 20 min, about two hours after feeding, motor index for twenty minutes before and after administration; for change in vivo at 0.1 mg/kg: dose 0.1 mg/kg i.v.; for change in vivo at 1 mg/kg: dose 1 mg/kg i.v. The procedure:
Under systemical anesthesia, force transducers were chronically implanted to the stomach and the colon of the adult male or female dogs in a direction to measure circular muscle contraction according to the method of Ito et al. (Japanese Journal of Smooth Muscle Research, 13, 33, 1976). A silicone tube chronically attached into jugular vein for intravenous administration of test compounds. After the animal was recovered from the operation, test compounds were administered at about two hours after feeding while gastrointestinal motility was measured. The gastrointestinal motility was indicated as motor index, and the effects of test compounds were estimated by the change of motor index for twenty minutes before and after the administration. […]

Where [1] appears, read: colon, read-out: Change of Motor Index (%) Colon.
The mark [2] stands for this setting: stomach, read-out: Change of Motor Index (%) Stomach.

Structures can show the parent of a compound that is named as a salt. Where two headings read alike, the source gives them in different places.

For the compound `COc1cc(N)c(Cl)cc1C(=O)N[C@H]1CCN(CC(=O)O)C[C@H]1OC` (relative stereo) [Example 64, cis-[4-(4-Amino-5-chloro-2-methoxybenzamido)-3-methoxypiperidino]acetic acid], the change in vivo at 0.1 mg/kg is 234% under setting [1] and 200% under setting [2].

As to `CCOC(=O)CN1[C@@H]2CCC[C@H]1C[C@@H](NC(=O)c1cc(Cl)c(N)cc1OC)C2` [Example 23, Ethyl endo-[3-(4-amino-5-chloro-2-methoxybenzamido)-9-azabicyclo[3.3.1]non-9-yl]acetate], the change in vivo at 1 mg/kg stood at 133% under setting [1] and 134% under setting [2].

On to `CCOC(=O)CCCN1[C@@H]2CCC[C@H]1C[C@@H](NC(=O)c1cc(Cl)c(N)cc1OC)C2` [Example 24, Ethyl endo-4-[3-(4-amino-5-chloro-2-methoxybenzamido)-9-azabicyclo[3.3.1]non-9-yl]butyrate], for which the change in vivo at 0.1 mg/kg is, setting by setting: under setting [1], 135%; under setting [2], 116%.

For `CCOC(=O)CCCCCN1[C@@H]2CCC[C@H]1C[C@@H](NC(=O)c1cc(Cl)c(N)cc1OC)C2` [Example 25, Ethyl endo-6-[3-(4-amino-5-chloro-2-methoxybenzamido)-9-azabicyclo[3.3.1]non-9-yl]hexanoate], the change in vivo at 1 mg/kg under setting [1] was 133% and the change in vivo at 1 mg/kg under setting [2] stood at 181%.

For `CCOC(=O)CCN1[C@@H]2CCC[C@H]1C[C@@H](NC(=O)c1cc(Cl)c(N)cc1OC)C2` [Example 27, Ethyl endo-3-[3-(4-amino-5-chloro-2-methoxybenzamido)-9-azabicyclo[3.3.1]non-9-yl]propionate], the change in vivo at 0.1 mg/kg worked out at 134% under setting [1] and 113% under setting [2].

For the compound `CCOC(=O)CCCCN1[C@@H]2CCC[C@H]1C[C@@H](NC(=O)c1cc(Cl)c(N)cc1OC)C2` [Example 28, Ethyl endo-5-[3-(4-amino-5-chloro-2-methoxybenzamido)-9-azabicyclo[3.3.1]non-9-yl]valerate], the change in vivo at 1 mg/kg by setting is: under setting [1], 164%; under setting [2], 142%.

As for `CCOC(=O)CN1[C@@H]2CC[C@H]1C[C@@H](NC(=O)c1cc(Cl)c(N)cc1OC)C2` [Example 32, Ethyl endo-[3-(4-amino-5-chloro-2-methoxybenzamido)-8-azabicyclo[3.2.1]oct-8-yl]acetate], the change in vivo at 1 mg/kg was found to be 158% under setting [1] and 177% under setting [2].

With `CCOC(=O)CN1[C@@H]2CC[C@H]1C[C@H](NC(=O)c1cc(Cl)c(N)cc1OC)C2` [Example 33, Ethyl exo-[3-(4-amino-5-chloro-2-methoxybenzamido)-8-azabicyclo[3.2.1]oct-8-yl]acetate], the change in vivo at 1 mg/kg by setting is: under setting [1], 117%; under setting [2], 147%.

With `COc1cc(N)c(Cl)cc1C(=O)N[C@H]1C[C@H]2CCC[C@@H](C1)N2CC(=O)O` [Example 34, endo-[3-(4-Amino-5-chloro-2-methoxybenzamido)-9-azabicyclo[3.3.1]non-9-yl]acetic acid hydrochloride], the change in vivo at 1 mg/kg is, setting by setting: under setting [1], 192%; under setting [2], 187%.

With `COc1cc(N)c(Cl)cc1C(=O)N[C@H]1C[C@H]2CCC[C@@H](C1)N2CCCC(=O)O` [Example 35, endo-4-[3-(4-Amino-5-chloro-2-methoxybenzamido)-9-azabicyclo[3.3.1]non-9-yl]butyric acid hydrochloride], the change in vivo at 1 mg/kg reads like this: under setting [1], 136%; under setting [2], 187%.

On to `COc1cc(N)c(Cl)cc1C(=O)N[C@H]1C[C@H]2CCC[C@@H](C1)N2CCCCCC(=O)O` [Example 36, endo-6-[3-(4-Amino-5-chloro-2-methoxybenzamido)-9-azabicyclo[3.3.1]non-9-yl]hexanoic acid hydrochloride], for which the change in vivo at 1 mg/kg by setting is: under setting [1], 120%; under setting [2], 196%.

Consider `COc1cc(N)c(Cl)cc1C(=O)N[C@H]1C[C@H]2CCC[C@@H](C1)N2CCC(=O)O` [Example 38, endo-3-[3-(4-Amino-5-chloro-2-methoxybenzamido)-9-azabicyclo[3.3.1]non-9-yl]propionic acid hydrochloride], for which the change in vivo at 1 mg/kg is 140% under setting [1] and 146% under setting [2].

With `COc1cc(N)c(Cl)cc1C(=O)N[C@H]1C[C@H]2CCC[C@@H](C1)N2CCCCC(=O)O` [Example 39, endo-5-[3-(4-Amino-5-chloro-2-methoxybenzamido)-9-azabicyclo[3.3.1]non-9-yl]valeric acid hydrochloride], the change in vivo at 0.1 mg/kg under setting [1] stood at 159% and the change in vivo at 0.1 mg/kg under setting [2] was 135%.

Turning to `CCOc1cc(N)c(Cl)cc1C(=O)NC1CC2CCCC(C1)N2CC(=O)O` (stereo not drawn) [Example 41, endo-[3-(4-Amino-5-chloro-2-ethoxybenzamido)-9-azabicyclo[3.3.1]non-9-yl]acetic acid hydrochloride], the change in vivo at 1 mg/kg under setting [1] came to 172% and the change in vivo at 1 mg/kg under setting [2] came out at 118%.

Regarding `COc1cc(N)c(Cl)cc1C(=O)NC1CC2CCC(C1)N2CC(=O)O` (stereo not drawn) [Example 43, endo-[3-(4-Amino-5-chloro-2-methoxybenzamido)-8-azabicyclo[3.2.1]oct-8-yl]acetic acid hydrochloride], the change in vivo at 1 mg/kg reads like this: under setting [1], 505%; under setting [2], 166%.

Regarding `CCOC(=O)CN1CCC(NC(=O)c2cc(Cl)c(N)cc2OC)CC1` [Example 46, Ethyl [4-(4-amino-5-chloro-2-methoxybenzamido)piperidino]acetate hydrochloride], the change in vivo at 1 mg/kg under setting [1] is 166% and the change in vivo at 1 mg/kg under setting [2] was determined as 182%.

For `COc1cc(N)c(Cl)cc1C(=O)NC1CCN(CC(=O)O)CC1` [Example 58, [4-[(4-Amino-5-chloro-2-methoxybenzamido)piperidino]acetic acid hydrochloride], the change in vivo at 0.1 mg/kg by setting is: under setting [1], 218%; under setting [2], 181%.

With `COc1cc(N)c(Cl)cc1C(=O)NC1CCN(C(C)C(=O)O)CC1` (stereo not drawn) [Example 63, 2-[4-(4-Amino-5-chloro-2-methoxybenzamido)piperidino]propionic acid], the change in vivo at 1 mg/kg was determined as 157% under setting [1] and 130% under setting [2].

Values taken from patent EP0640601B1, “BENZAMIDE DERIVATIVE” (HOKURIKU SEIYAKU CO., LTD., priority 1991, dated 1992).
